Like-named read-outs stand apart in the source and are kept apart here.
Tests used:
[1] = molecular target: ligand binding domain of human FXR (Homo sapiens (Human), UniProt Q96RI1); experiment: FXR ligand binding assay (LanthaScreen TR-FRET, SRC2-2 peptide recruitment); conditions: for Emax: read-out: % Efficacy
[2] = molecular target: human Farnesoid X receptor ligand-binding domain/Gal4 DNA binding domain chimera (Homo sapiens (Human), UniProt Q96RI1); experiment: Cell-based assay of FXR activation (FXR-UAS-bla HEK 293T beta-lactamase reporter); conditions: cellular FXR beta-lactamase reporter assay; for Emax: HEK-293T, extent of activation relative to GW4064, read-out: % Efficacy; for EC50: FXR-UAS-bla HEK 293T cells, 16 h, pEC50 = -log EC50
human Farnesoid X receptor ligand-binding domain/Gal4 DNA binding domain chimera, sequence (Q96RI1 262-486, stated change not applied): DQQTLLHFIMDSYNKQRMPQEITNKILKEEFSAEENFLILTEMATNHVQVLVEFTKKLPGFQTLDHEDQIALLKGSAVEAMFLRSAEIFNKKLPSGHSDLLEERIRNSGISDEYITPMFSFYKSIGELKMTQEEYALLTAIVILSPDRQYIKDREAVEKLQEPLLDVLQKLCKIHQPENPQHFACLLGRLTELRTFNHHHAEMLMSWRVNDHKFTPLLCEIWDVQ
human Farnesoid X receptor ligand-binding domain/Gal4 DNA binding domain chimera, sequence (P04386 1-147 partner): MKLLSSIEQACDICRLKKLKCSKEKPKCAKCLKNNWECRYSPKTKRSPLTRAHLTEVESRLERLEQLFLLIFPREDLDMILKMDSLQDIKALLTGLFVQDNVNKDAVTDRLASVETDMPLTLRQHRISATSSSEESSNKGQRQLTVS
Experimental: FXR activation was measured using a cell line and procedure obtained from Life Technologies (Cat # K1691). FXR-UAS-bla HEK 293T cells contain a human Farnesoid X receptor ligand-binding domain/Gal4 DNA binding domain chimera stably integrated into the CellSensor® UAS-bla HEK 293T cell line. The CellSensor® UAS-bla HEK 293T contains a beta-lactamase reporter gene under control of a UAS response element stably integrated into HEK 293T cells. Activation of FXR by bound ligands results in transcriptional activation of the beta-lactamase reporter gene, which is detected via assay of beta-lactamase activity.
Cells are harvested and diluted into assay medium containing phenol red-free DMEM supplemented with 2% Charcoal-stripped FBS, pyruvate, non-essential amino acids. Cells are then transferred to a 384 well assay plate. Test compounds are dissolved in DMSO and a 3-fold serial dilution series is generated, then further diluted into assay medium. Compounds in assay medium are added to cells in the 384 well plate and allowed to incubate 16 h at 37 C in the presence of 5% CO2.
A FRET-based […] is loaded into cells as its acetomethoxy ester. Intracellular esterases liberate free CCF4, a cephalosporin core linking 7-hydroxycoumarin to fluorescein. In the presence of beta-lactamase activity produced in the presence of FXR agonists, cleavage of CCF4 spatially separates the two dyes and disrupts FRET, so that exciting the coumarin at 409 nm now produces a blue fluorescence signal at 447 nm. The change in FRET signal is plotted against the test compound concentration and fit to a 3-parameter logistical equation. The concentration required to produce 50% activation is expressed as pEC50 (−log EC50), and the extent of activation is expressed relative to GW4064 as % activation.

[3] = -log EC50, concentration required to produce 50% activation
[4] = extent of activation relative to GW4064

ligand binding domain of human FXR, sequence (Q96RI1 262-486): as the sequence (Q96RI1 262-486, stated change not applied) above

Question: What does the source list for `O=C(O)CCc1ccc(N2C[C@@H]3C[C@H]2C[C@H]3OCc2c(-c3c(Cl)cccc3Cl)noc2C2CC2)cc1` [Compound I-147, 3-{4-[(1S,4S,5R)-5-{[5-cyclopropyl-3-(2,6-dichlorophenyl)-1,2-oxazol-4-yl]methoxy}-2-azabicyclo[2.2.1]heptan-2-yl]phenyl}propanoic Acid]?
Answer: pEC50 [1, 3]: 8.1; Emax [1]: 142%; Emax [2]: 112%; EC50 [2]: 0.631 nM

Question: How did the pEC50 [1, 3] turn out when `Cc1cc(C(=O)O)cc2sc(N3C[C@@H]4C[C@H]3C[C@H]4OCc3c(-c4c(Cl)cccc4Cl)noc3C3CC3)nc12` [Compound I-13, 2-[(1S,4S,5R)-5-{[5-cyclopropyl-3-(2,6-dichlorophenyl)-1,2-oxazol-4-yl]methoxy}-2-azabicyclo[2.2.1]heptan-2-yl]-4-methyl-1,3-benzothiazole-6-carboxylic acid] was run?
Answer: 8.6

Question: And the Emax [1, 4]?
Answer: 174%

Question: What about the Emax [2] of the same compound?
Answer: 116%

Question: What about the EC50 [2] of the same compound?
Answer: 0.158 nM

Question: Which results are given for `O=C(O)c1cc([C@@H]2CCOC2)c2nc(N3C[C@@H]4C[C@H]3C[C@H]4OCc3c(C4CCC5(CC4)CC5)noc3C3CC3)sc2c1` [Compound I-281, 2-((1S,4S,5R)-5-((5-cyclopropyl-3-(spiro[2.5]octan-6-yl)isoxazol-4-yl)methoxy)-2-azabicyclo[2.2.1]heptan-2-yl)-4-((S)-tetrahydrofuran-3-yl)benzo[d]thiazole-6-carboxylic acid]?
Answer: pEC50 [1, 3]: 7.4; Emax [1, 4]: 104%; Emax [2]: 105%; EC50 [2]: 15.8 nM

Question: Which results are given for `CN1CCC(S(=O)(=O)NC(=O)c2ccc(N3C[C@@H]4C[C@H]3C[C@H]4OCc3c(-c4c(Cl)cccc4Cl)noc3C3CC3)cc2)CC1` [Compound I-187, 4-((1S,4S,5R)-5-((5-cyclopropyl-3-(2,6-dichlorophenyl)isoxazol-4-yl)methoxy)-2-azabicyclo[2.2.1]heptan-2-yl)-N-((1-methylpiperidin-4-yl)sulfonyl)benzamide]?
Answer: pEC50 [1, 3]: 9.2; Emax [1, 4]: 156%; Emax [2]: 104%; EC50 [2]: 10 nM

Question: For `O=CN(O)Cc1ccc(N2C[C@@H]3C[C@H]2C[C@H]3OCc2c(-c3c(Cl)cccc3Cl)noc2C2CC2)cc1` [Compound I-161, N-({4-[(1S,4S,5R)-5-{[5-cyclopropyl-3-(2,6-dichlorophenyl)-1,2-oxazol-4-yl]methoxy}-2-azabicyclo[2.2.1]heptan-2-yl]phenyl}methyl)-N-hydroxyformamide], which pEC50 [1, 3] is on record?
Answer: 6.9

Question: And the Emax [1, 4]?
Answer: 134%

Question: What about the Emax [2] of the same compound?
Answer: 102%

Question: And the EC50 [2]?
Answer: 12.6 nM

Question: `Cc1cccc(Cl)c1-c1noc(C2CC2)c1CO[C@@H]1C[C@@H]2C[C@H]1CN2c1nc2c(OC3CC3)cc(C(=O)O)cc2s1` [Compound I-270, 2-((1S,4S,5R)-5-((3-(2-chloro-6-methylphenyl)-5-cyclopropylisoxazol-4-yl)methoxy)-2-azabicyclo[2.2.1]heptan-2-yl)-4-cyclopropoxybenzo[d]thiazole-6-carboxylic acid] was tested. Which pEC50 [1, 3] did it give?
Answer: 8.7

Question: And the Emax [1, 4]?
Answer: 150%

Question: And the Emax [2]?
Answer: 106%

Question: And the EC50 [2]?
Answer: 0.1 nM

Question: For `O=C(O)c1cc(OC(F)(F)F)c2nc(N3C[C@@H]4C[C@H]3C[C@H]4OCc3c(-c4c(Cl)cccc4Cl)noc3C3CC3)sc2c1` [Compound I-16], which pEC50 [1, 3] is on record?
Answer: 8.8

Question: And the Emax [1, 4]?
Answer: 174%

Question: And the Emax [2]?
Answer: 109%

Question: What about the EC50 [2] of the same compound?
Answer: 0.0398 nM

Question: `O=C(O)c1ccc(N2C[C@@H]3C[C@H]2C[C@H]3OC(=O)c2c(-c3c(Cl)cccc3Cl)noc2C2(F)CC2)c(F)c1` [Compound I-44, 4-[(1S,4S,5R)-5-[3-(2,6-dichlorophenyl)-5-(1-fluorocyclopropyl)-1,2-oxazole-4-carbonyloxy]-2-azabicyclo[2.2.1]heptan-2-yl]-3-fluorobenzoic Acid] was tested. Which pEC50 [1, 3] did it give?
Answer: 7.6

Question: And the Emax [1, 4]?
Answer: 152%

Question: What about the Emax [2] of the same compound?
Answer: 107%

Question: What about the EC50 [2] of the same compound?
Answer: 10 nM

Question: For `Cc1cccc(Cl)c1-c1noc(C2CC2)c1CO[C@@H]1C[C@@H]2C[C@H]1CN2c1ccc(C(=O)NS(=O)(=O)C2CCOCC2)cc1` [Compound I-203, 4-((1S,4S,5R)-5-((3-(2-chloro-6-methylphenyl)-5-cyclopropylisoxazol-4-yl)methoxy)-2-azabicyclo[2.2.1]heptan-2-yl)-N-((tetrahydro-2H-pyran-4-yl)sulfonyl)benzamide], which pEC50 [1, 3] is on record?
Answer: 9

Question: And the Emax [1, 4]?
Answer: 157%

Question: And the Emax [2]?
Answer: 102%

Question: What about the EC50 [2] of the same compound?
Answer: 0.158 nM

Question: How did the pEC50 [1, 3] turn out when `O=C(NS(=O)(=O)[C@@H]1CCC[C@H]1O)c1ccc(N2C(=O)[C@@H]3C[C@H]2C[C@H]3OCc2c(-c3c(Cl)cccc3Cl)noc2C2CC2)cc1` [Compound I-344, 4-[(1S,4R,5R)-5-{[5-cyclopropyl-3-(2,6-dichlorophenyl)-1,2-oxazol-4-yl]methoxy}-3-oxo-2-azabicyclo[2.2.1]heptan-2-yl]-N-{[(1R,2R)-2-hydroxycyclopentyl]sulfonyl}benzamide] was run?
Answer: 8.4

Question: And the Emax [1, 4]?
Answer: 203%

Question: And the Emax [2]?
Answer: 132%

Question: What about the EC50 [2] of the same compound?
Answer: 1.58 nM

Question: What does the source list for `O=C(O)c1ccc(N2C[C@@H]3C[C@H]2C[C@H]3OCc2c(C3CCC4(CC3)CC4)noc2C2CC2)c(F)c1` [Compound I-126, 4-[(1S,4S,5R)-5-[(5-cyclopropyl-3-{spiro[2.5]octan-6-yl}-1,2-oxazol-4-yl)methoxy]-2-azabicyclo[2.2.1]heptan-2-yl]-3-fluorobenzoic Acid]?
Answer: Emax [1]: 114%; Emax [2]: 106%; EC50 [2]: 39.8 nM

Question: For `O=C(O)c1ccc(N2C[C@@H]3C[C@H]2C[C@H]3OCc2c(-c3c(Cl)cccc3Cl)noc2C2CC2)c(F)c1` [Compound I-53, 4-[(1S,4S,5R)-5-[[5-cyclopropyl-3-(2,6-dichlorophenyl)-1,2-oxazol-4-yl]methoxy]-2-azabicyclo[2.2.1]heptan-2-yl]-3-fluorobenzoic acid], which pEC50 [1, 3] is on record?
Answer: 8.7

Question: And the Emax [1, 4]?
Answer: 145%

Question: What about the Emax [2] of the same compound?
Answer: 113%

Question: What about the EC50 [2] of the same compound?
Answer: 0.398 nM

Question: What does the source list for `O=C(NS(=O)(=O)C1CC1)c1ccc(N2C[C@@H]3C[C@H]2C[C@H]3OC(=O)c2c(-c3c(Cl)cccc3Cl)noc2C2CC2)cc1` [Compound I-47, (1S,4S,5R)-2-{4-[(cyclopropanesulfonyl)carbamoyl]phenyl}-2-azabicyclo[2.2.1]heptan-5-yl 5-cyclopropyl-3-(2,6-dichlorophenyl)-1,2-oxazole-4-carboxylate]?
Answer: pEC50 [1, 3]: 7.8; Emax [1, 4]: 174%; Emax [2]: 106%; EC50 [2]: 15.8 nM

Question: Which pEC50 [1, 3] does the source give for `O=C(O)c1cc([C@H]2CCOC2)c2nc(N3C[C@@H]4C[C@H]3C[C@H]4OCc3c(-c4c(Cl)cccc4Cl)noc3C3CC3)sc2c1` [Compound I-253, 2-[(1S,4S,5R)-5-{[5-cyclopropyl-3-(2,6-dichlorophenyl)-1,2-oxazol-4-yl]methoxy}-2-azabicyclo[2.2.1]heptan-2-yl]-4-[(3R)-oxolan-3-yl]-1,3-benzothiazole-6-carboxylic Acid] here?
Answer: 8.6

Question: And the Emax [1, 4]?
Answer: 140%

Question: What about the Emax [2] of the same compound?
Answer: 107%

Question: And the EC50 [2]?
Answer: 0.158 nM

Question: For `O=C(O)c1cc(F)c(N2C[C@@H]3C[C@H]2C[C@H]3OCc2c(-c3c(Cl)cccc3Cl)noc2C2CC2)c(F)c1` [Compound I-54, 4-[(1S,4S,5R)-5-{[5-cyclopropyl-3-(2,6-dichlorophenyl)-1,2-oxazol-4-yl]methoxy}-2-azabicyclo[2.2.1]heptan-2-yl]-3,5-difluorobenzoic Acid], which EC50 [1, 3] is on record?
Answer: 1.58 nM

Question: What about the Emax [1, 4] of the same compound?
Answer: 158%

Question: And the Emax [2]?
Answer: 101%

Question: What about the EC50 [2] of the same compound?
Answer: 0.316 nM

Question: What does the source list for `O=C(NS(=O)(=O)C1CC1)c1ccc(N2C[C@H]3C[C@@H]2C[C@@H]3OCc2c(-c3c(Cl)cccc3Cl)noc2C2CC2)cc1` [Compound I-232, 4-((1R,4R,5S)-5-((5-cyclopropyl-3-(2,6-dichlorophenyl)isoxazol-4-yl)methoxy)-2-azabicyclo[2.2.1]heptan-2-yl)-N-(cyclopropylsulfonyl)benzamide]?
Answer: pEC50 [1, 3]: 8.1; Emax [1, 4]: 126%; Emax [2]: 93%; EC50 [2]: 25.1 nM

Question: Which pEC50 [1, 3] does the source give for `CS(=O)(=O)NC(=O)c1ccc(N2C[C@@H]3C[C@H]2C[C@H]3OCc2c(-c3c(Cl)cccc3Cl)noc2C2CC2)cc1` [Compound I-58, 4-[(1S,4S,5R)-5-{[5-cyclopropyl-3-(2,6-dichlorophenyl)-1,2-oxazol-4-yl]methoxy}-2-azabicyclo[2.2.1]heptan-2-yl]-N-methanesulfonylbenzamide] here?
Answer: 8.4

Question: What about the Emax [1, 4] of the same compound?
Answer: 153%

Question: And the Emax [2]?
Answer: 104%

Question: What about the EC50 [2] of the same compound?
Answer: 0.501 nM

Question: Which pEC50 [1, 3] does the source give for `Cc1cc(N2C(=O)[C@@H]3C[C@H]2C[C@H]3OCc2c(-c3c(Cl)cccc3Cl)noc2C2CC2)ccc1C(=O)O` [Compound I-316, 4-[(1S,4R,5R)-5-{[5-cyclopropyl-3-(2,6-dichlorophenyl)-1,2-oxazol-4-yl]methoxy}-3-oxo-2-azabicyclo[2.2.1]heptan-2-yl]-2-methylbenzoic Acid] here?
Answer: 7.6

Question: And the Emax [1, 4]?
Answer: 152%

Question: What about the Emax [2] of the same compound?
Answer: 109%

Question: And the EC50 [2]?
Answer: 7.94 nM

From US10793568B2, “Hormone receptor modulators for treating metabolic conditions and disorders” (ARDELYX, INC., priority 2016, dated 2020)
